The IC50 is the concentration at which inhibition is half-maximal. A low value points to higher potency. In general, EC50 refers to the midpoint of the concentration-response curve.

A value given as a limit tells only on which side of the number the result lay.

Assay [1] deals with VCaP cells. Briefly: VCaP growth inhibition assay. Format: cell-based. The conditions noted are these: 30 pM R1881, 9 days, CTG. In short, it runs like this: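 VCaP cells in phenol red-free DMEM/5% CSS, pre-incubated 72 h, then stimulated with R1881 (final 30 pM) and treated with 1:5 serial dilutions (final 100 nM to 10 fM) for 9 days at 37 °C. Viability by CellTiter-Glo luminescence; IC50 from 4-parameter logistic fit of RLU vs concentration.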

The subject of assay [2] is AR / CBP ternary complex. Briefly: Ternary complex formation assay (sandwich ELISA, AR capture / CBP detection) in VCaP cell lysates. The conditions noted are these: 1.5 hours treatment, sandwich ELISA (AR capture, CBP or p300 detection). It counts as cell-based. In short, it runs like this: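 VCaP cells (50K/well, 5% charcoal-stripped FBS, ≥3 days) treated with bifunctional compound for 1.5 h, then lysed 30 min at 4 °C. AR captured on anti-AR (AR 441) plates; bound CBP or p300 detected by rabbit mAb plus HRP secondary. QuantaRed chemifluorescence read at ex 570/em 585, immediately and at 5 and 15 min.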

For the compound `COc1cc(OC2C(C)(C)C(NC(=O)c3ccc(N4CCC(C(=O)N5CCC(n6nc(N7CCCc8cc(-c9cnn(C)c9)c(C(F)F)cc87)c7c6CCN(C(C)=O)C7)CC5)CC4)cc3)C2(C)C)ccc1C#N` (stereo not shown) [Compound 252, 4-[4-[4-[5-acetyl-3-[7-(difluoromethyl)-6-(1-methylpyrazol-4-yl)-3,4-dihydro-2H-quinolin-1-yl]-6,7-dihydro-4H-pyrazolo[4,3-c]pyridin-1-yl]piperidine-1-carbonyl]-1-piperidyl]-N-[3-(4-cyano-3-methoxy-phenoxy)-2,2,4,4-tetramethyl-cyclobutyl]benzamide], the half-inhibitory concentration (IC50) in assay [1] is 0.1 to 1 nM. The compound also gave an EC50 in assay [2] of under 1 nM.

Turning to `COc1cc(OC2C(C)(C)C(NC(=O)c3ccc(N4CCC(C5CCC(n6cc(-c7cc8cccc(-c9nn(C%10CCOCC%10)c%10c9CN(C(C)=O)CC%10)c8cn7)cn6)CC5)CC4)cc3)C2(C)C)ccc1C#N` (stereo not shown) [Compound 271, 4-[4-[4-[4-[8-(5-acetyl-1-tetrahydropyran-4-yl-6,7-dihydro-4H-pyrazolo[4,3-c]pyridin-3-yl)-3-isoquinolyl]pyrazol-1-yl]cyclohexyl]-1-piperidyl]-N-[3-(4-cyano-3-methoxy-phenoxy)-2,2,4,4-tetramethylcyclobutyl]benzamide], the IC50 in assay [1] was in the range of 0.1 to 1 nM. In assay [2], this compound returned an EC50 of under 1 nM.

Compound `CC(=O)N1CCc2c(c(N3CCCc4cc(-c5cnn(C)c5)c(C(F)F)cc43)nn2C2CCN(CC3CCN(c4ncc(C(=O)NC5C(C)(C)C(Oc6ccc(C#N)c(Cl)c6)C5(C)C)cn4)CC34CC4)CC2)C1` (stereo not shown) [Compound 357, 2-[8-[[4-[5-acetyl-3-[7-(difluoromethyl)-6-(1-methylpyrazol-4-yl)-3,4-dihydro-2H-quinolin-1-yl]-6,7-dihydro-4H-pyrazolo[4,3-c]pyridin-1-yl]-1-piperidyl]methyl]-5-azaspiro[2.5]octan-5-yl]-N-[3-(3-chloro-4-cyano-phenoxy)-2,2,4,4-tetramethyl-cyclobutyl]pyrimidine-5-carboxamide] came in with an IC50 in assay [1] of at most 0.1 nM. This compound also registered an EC50 in assay [2] of under 1 nM.

`CC(=O)N1CCc2c(c(Nc3ccc(-c4cnn(C)c4)cc3F)nn2C2CN(CC3CCN(c4ncc(C(=O)NC5C(C)(C)C(Oc6ccc(C#N)c(Cl)c6)C5(C)C)cn4)CC3)C2)C1` (stereo not shown) [Compound 4, 2-[4-[[3-[5-acetyl-3-[2-fluoro-4-(1-methylpyrazol-4-yl)anilino]-6,7-dihydro-4H-pyrazolo[4,3-c]pyridin-1-yl]azetidin-1-yl]methyl]-1-piperidyl]-N-[3-(3-chloro-4-cyano-phenoxy)-2,2,4,4-tetramethyl-cyclobutyl]pyrimidine-5-carboxamide]: the concentration for half-maximal inhibition (IC50) in assay [1] was over 100 nM. Moreover, in assay [2], the EC50 was over 100 nM.

`CC(=O)N1CCc2c(c(N3CCCc4cc(-c5cnn(C)c5)c(C)cc43)nn2C2CCN(CC3CCN(c4ncc(C(=O)NC5C(C)(C)C(Oc6ccc(C#N)c(C)c6)C5(C)C)cn4)CC3(C)C)CC2)C1` (stereo not shown) [Compound 466, 2-[4-[[4-[5-acetyl-3-[7-methyl-6-(1-methylpyrazol-4-yl)-3,4-dihydro-2H-quinolin-1-yl]-6,7-dihydro-4H-pyrazolo[4,3-c]pyridin-1-yl]-1-piperidyl]methyl]-3,3-dimethyl-1-piperidyl]-N-[3-(4-cyano-3-methyl-phenoxy)-2,2,4,4-tetramethyl-cyclobutyl]pyrimidine-5-carboxamide]: the half-maximal inhibitory concentration (IC50) in assay [1] lay within 0.1 to 1 nM. The EC50 in assay [2] was under 1 nM.

`CC(=O)N1CCc2c(c(N3CCCc4cc(-c5cnn(C)c5)c(C)cc43)nn2C2CCN(C3CCC4(CC3)CN(c3ncc(C(=O)NC5C(C)(C)C(Oc6ccc(C#N)c(C)c6)C5(C)C)cn3)C4)CC2)C1` (stereo not shown) [Compound 471, 2-[7-[4-[5-acetyl-3-[7-methyl-6-(1-methylpyrazol-4-yl)-3,4-dihydro-2H-quinolin-1-yl]-6,7-dihydro-4H-pyrazolo[4,3-c]pyridin-1-yl]-1-piperidyl]-2-azaspiro[3.5]nonan-2-yl]-N-[3-(4-cyano-3-methyl-phenoxy)-2,2,4,4-tetramethyl-cyclobutyl]pyrimidine-5-carboxamide] registered an IC50 in assay [1] of 0.1 to 1 nM. Further, in assay [2], the EC50 is under 1 nM.

Compound `CC(=O)N1CCc2c(c(N3CCCc4ccc(C(F)F)cc43)nn2C2CC3(C2)CN(CC2CC4(C2)CN(c2ncc(C(=O)NC5C(C)(C)C(Oc6ccc(C#N)c(Cl)c6)C5(C)C)cn2)C4)C3)C1` (stereo not shown) [Compound 219, 2-[6-[[6-[5-acetyl-3-[7-(difluoromethyl)-3,4-dihydro-2H-quinolin-1-yl]-6,7-dihydro-4H-pyrazolo[4,3-c]pyridin-1-yl]-2-azaspiro[3.3]heptan-2-yl]methyl]-2-azaspiro[3.3]heptan-2-yl]-N-[3-(3-chloro-4-cyano-phenoxy)-2,2,4,4-tetramethyl-cyclobutyl]pyrimidine-5-carboxamide] showed a half-maximal inhibitory concentration (IC50) in assay [1] of 0.1 to 1 nM. In assay [2], this compound showed an EC50 of 1 to 10 nM.

In assay [1], `COc1cc(OC2C(C)(C)C(NC(=O)c3ccc(N4CCC(N5CCC6(CC5)CC(n5nc(N7CCCc8cc(-c9cnn(C)c9)c(C(F)F)cc87)c7c5CCN(C(C)=O)C7)C6)CC4)cc3)C2(C)C)ccc1C#N` (stereo not shown) [Compound 374, 4-[4-[2-[5-acetyl-3-[7-(difluoromethyl)-6-(1-methylpyrazol-4-yl)-3,4-dihydro-2H-quinolin-1-yl]-6,7-dihydro-4H-pyrazolo[4,3-c]pyridin-1-yl]-7-azaspiro[3.5]nonan-7-yl]-1-piperidyl]-N-[3-(4-cyano-3-methoxy-phenoxy)-2,2,4,4-tetramethyl-cyclobutyl]benzamide] had an IC50 of 0.1 to 1 nM. Moreover, the concentration giving a half-maximal response (EC50) in assay [2] is under 1 nM.

In turn, `COc1cc(OC2C(C)(C)C(NC(=O)c3ccc(N4CCC(N5CCC(n6nc(N7CCCc8cc(-c9cnn(C)c9)c(C(F)F)cc87)c7c6CCN(C(C)=O)C7)CC5)CC4)cc3)C2(C)C)ccc1C#N` (stereo not shown) [Compound 277, 4-[4-[4-[5-acetyl-3-[7-(difluoromethyl)-6-(1-methylpyrazol-4-yl)-3,4-dihydro-2H-quinolin-1-yl]-6,7-dihydro-4H-pyrazolo[4,3-c]pyridin-1-yl]-1-piperidyl]-1-piperidyl]-N-[3-(4-cyano-3-methoxy-phenoxy)-2,2,4,4-tetramethyl-cyclobutyl]benzamide] came in with a half-maximal inhibitory concentration (IC50) in assay [1] of at most 0.1 nM. For the same compound, in assay [2], the EC50 was under 1 nM.

For the compound `CNC(=O)N1CCc2c(c(N3CCCc4cc(-c5cnn(C)c5)c(C(F)F)cc43)nn2C2CCN(c3ncc(C(=O)NC4C(C)(C)C(Oc5ccc(C#N)c(Cl)c5)C4(C)C)cn3)CC2)C1` (stereo not shown) [Compound 93, 1-[1-[5-[[3-(3-chloro-4-cyano-phenoxy)-2,2,4,4-tetramethyl-cyclobutyl]carbamoyl]pyrimidin-2-yl]-4-piperidyl]-3-[7-(difluoromethyl)-6-(1-methylpyrazol-4-yl)-3,4-dihydro-2H-quinolin-1-yl]-N-methyl-6,7-dihydro-4H-pyrazolo[4,3-c]pyridine-5-carboxamide], the IC50 in assay [1] fell in the range of 0.1 to 1 nM. In addition, in assay [2], the EC50 is over 100 nM.

In the case of `CC(=O)N1CCc2c(c(N3CCCc4cc(-c5cnn(C)c5)c(C(F)F)cc43)nn2C2CC3(CCN(C4CCN(c5ncc(C(=O)NC6C(C)(C)C(Oc7ccc(C#N)c(Cl)c7)C6(C)C)cn5)CC4)CC3)C2)C1` (stereo not shown) [Compound 373, 2-[4-[2-[5-acetyl-3-[7-(difluoromethyl)-6-(1-methylpyrazol-4-yl)-3,4-dihydro-2H-quinolin-1-yl]-6,7-dihydro-4H-pyrazolo[4,3-c]pyridin-1-yl]-7-azaspiro[3.5]nonan-7-yl]-1-piperidyl]-N-[3-(3-chloro-4-cyano-phenoxy)-2,2,4,4-tetramethyl-cyclobutyl]pyrimidine-5-carboxamide], in assay [1], the IC50 is at most 0.1 nM. Moreover, the EC50 in assay [2] is under 1 nM.

For the origin of these results see US20250129070A1, “BIFUNCTIONAL ANDROGEN RECEPTOR COMPOUNDS” (priority 2023, published 2025).
